Measured values published in patent publication US10881638B2, “Eye health composition” (Laboratoires Thea, priority 2015, dated 2021).

Experiments:
VEGF [1] = conditions: in vitro, human retinal pigmentary epithelium cells (HRPE cells); cited from earlier work
[2] = tested on: VEGFR receptors (VEGFR1 and VEGFR2), p-VEGFR2, VEGF; test: Western blot of the VEGF pathway in differentiated (healthy) ARPE-19 cells; format: cell-based, human; conditions: differentiated ARPE-19, 24 h, 20 μM resveratrol (R20)
Method: The protocol used is the same as the one described in the example II-2, except for the cells studied: Cells studied: culture of differentiated ARPE-19 (human retinal pigment epithelium) cells. The undifferentiated cells are seeded in T75 flasks. The cells are maintained at 37° C., and in the presence of 5% CO2 in the medium DMEM/F12 (GIBCO; 31331), completed with 10% FBS (Lonza) and 15 mM HEPES (pH 7.4; GIBCO). When the cells reach confluence, the medium is replaced by DMEM/F12 (GIBCO; 31331), completed with 1% FBS (Lonza) and HEPES (15 mM pH 7.4; GIBCO). The media were changed 2 times per week for 8 weeks. Said cells can be equated with undamaged or healthy retinal cells.

[3] = tested on: VEGFR receptors (VEGFR1 and VEGFR2), p-VEGFR2, VEGF; test: Western blot of the VEGF pathway in undifferentiated (pathological) ARPE-19 cells; format: cell-based, human; conditions: undifferentiated ARPE-19, 24 h, 20 μM resveratrol (R20) or equivalent (A20)
Method: Cells studied: culture of undifferentiated ARPE-19 (ATCC® CRL-2302™) (human retinal pigment epithelium) cells.
The cells were maintained at 37° C., and in the presence of 5% CO2 in the medium DMEM/F12 (GIBCO; 31331), completed with 10% FBS (Lonza) and 15 mM HEPES (pH 7.4; GIBCO).
b) Incubation Between the Compositions (Formula A or B) and the Cells: 1, 5, 10 or 20 μM.
The 10 μM equivalent from formula B also corresponding to 0.115 mg/mL of formula B in DMEM/F12+1% FBS w/o phenol red.
The day prior to treatment, the medium was eliminated and replaced by DMEM/F12 without phenol red (GIBCO; 21041), completed with 1% FBS (Lonza) and 15 mM HEPES (pH 7.4; GIBCO).
After 24 h of stimulation, the media were eliminated, the cells were washed with PBS 1× then scrubbed in PBS 1×. The cells were centrifuged and the remainder was resuspended in the RIPA buffer along with a cocktail of protease inhibitors (Roche) and phosphatase inhibitors. The cells were lysed in ice for 30 minutes, then centrifuged. The protein concentration was determined by means of a protein quantification kit (Lowry kit, biorad). […] The membranes were again washed 3 times in 0.1% PBS-T and the signal was detected by ECL (Tebu bio). The images were recorded with the ChemiDoc imaging system and analyzed with Quantity One Software (Biorad) software.
The β-actin was also quantified in order to relativize the levels of expression.

VEGF [4] = conditions: wet form of AMD, repeated intravitreal injections; cited from earlier work

## Oc1ccc(/C=C/c2cc(O)cc(O)c2)cc1 [resveratrol]
VEGF [1]
  overexpression of VEGF induced by cytokines: inhibiting in vitro the overexpression of VEGF
[2]
  effect on VEGF receptors of healthy cells, resveratrol alone: has no effect on healthy cells
[3]
  expression of VEGF receptors, resveratrol alone versus composition: makes it possible to reduce the expression of VEGF receptors

## pegaptanib
VEGF [4]
  effect of the treatment: little effect

B1: ranibizumab: VEGF inhibitor used since 2007 for the wet form of AMD (antibody, chains of the INN, looked up, V domains shown)
VH: EVQLVESGGGLVQPGGSLRLSCAASGYDFTHYGMNWVRQAPGKGLEWVGWINTYTGEPTYAADFKRRFTFSLDTSKSTAYLQMNSLRAEDTAVYYCAKYPYYYGTSHWYFDVWGQGTLVTVSS
VL: DIQLTQSPSSLSASVGDRVTITCSASQDISNYLNWYQQKPGKAPKVLIYFTSSLHSGVPSRFSGSGSGTDFTLTISSLQPEDFATYYCQQYSTVPWTFGQGTKVEIK
modifications: Fab
VEGF [4]
  unresponsive or no longer responsive to the treatment: about 30%
